Laboratory results reported in patent US8741592B2, “Methods of screening an agent for an activity in an isolated eye of a teleost” (Phylonix Pharmaceuticals, Inc., priority 2007, dated 2014).
Several values for one entry are separate records, joined by “and”; a condition that tells them apart may be missing. Identical values can stand only once. Entries after “also recorded” stand apart in the source; their conditions may differ.

What was measured:
[1] = test system: choroidal neovascularization (CNV) in zebrafish; experiment: Hypoxia-induced choroidal neovascularization (CNV) model, Phy-V staining of treated zebrafish; assay type: in vivo
[2] = test system: HIF-1α; design: key: ↑: Up arrows indicate up-regulation; ↓: down arrows indicate down-regulation; —: horizontal line indicates no change; conditions: zebrafish, in vivo
[3] = test system: VEGF; design: key to VEGF expression (RT-PCR): ↑: Up arrows indicate up-regulation; ↓: down arrows indicate down-regulation; —: horizontal line indicates no change; conditions: zebrafish, in vivo
[4] = test system: IGF; design: key: ↑: Up arrows indicate up-regulation; ↓: down arrows indicate down-regulation; —: horizontal line indicates no change; conditions: zebrafish, in vivo
[5] = test system: PEDF; design: key: ↑: Up arrows indicate up-regulation; ↓: down arrows indicate down-regulation; —: horizontal line indicates no change; conditions: zebrafish, in vivo
[6] = test system: PGK; design: key: ↑: Up arrows indicate up-regulation; ↓: down arrows indicate down-regulation; —: horizontal line indicates no change; conditions: zebrafish, in vivo
[7] = test system: zebrafish eye (retina); assay type: in vivo
[8] = test system: zebrafish; conditions: in vivo
[9] = test system: CoCl2 induced CNV; experiment: Effect of anti-angiogenic drugs on CoCl2 induced CNV, visual assessment of Phy-V stained whole zebrafish; assay type: in vivo; conditions: for Mean ± SE (% CNV) / % CNV (per experiment) / CNV zebrafish (number per experiment): co-treatment with 0.1 mg/ml CoCl2, 24 hpf to 5 dpf; for abnormal neovascularization in the choroidal vessel plexus: co-treatment with CoCl2, 5 dpf zebrafish
Description: 24 hpf zebrafish were treated with 0.1 mg/ml CoCl2 continuously for 4 days, and various concentrations of Celebrex or Genistein were incubated with the zebrafish. At the 5 dpf stage, zebrafish were fixed and stained with zebrafish angiogenic-vessel-specific antibody, Phy-V. Several treatment strategies were assessed: (1) pre-treatment (high concentration of drug added for 4 hours and withdrawn before CoCl2 induction); (2) co-treatment (drugs were co-treated with CoCl2); and (3) post-treatment (drugs were added 24 hours after CoCl2).
The drug effects on CNV zebrafish were assessed visually using microscopic examination of Phy-V stained whole zebrafish. % CNV inhibition was calculated by dividing the total number of CNV zebrafish by the total number of zebrafish per experiment (Tables II and III). The percentage of CNV zebrafish was lowest after co-treatment with Celebrex.
Celebrex or Genistein Co-Treatment. Celebrex and Genistein dissolved in DMSO were added directly to fish water, the final concentration of DMSO for Celebrex and Genistein was 0.8%. For pre-treatment, 24 hpf zebrafish were incubated with high concentrations of each drug at 28° C. for 4 hours; the drugs were washed off and zebrafish were treated with 0.1 mg/ml CoCl2. For co-treatment, each drug was added simultaneously with 0.1 mg/ml CoCl2. For post-treatment, each drug was added 24 hours after CoCl2 addition. After drug treatment, zebrafish were washed and processed for whole mount immunochemical staining
Whole Mount Immunofluorescence Staining. Zebrafish were fixed by Dent's fixative (DMSO/methanol=⅓) and processed for whole mount immunochemical staining following standard procedures (Westerfield, 1993, supra). Alexa 488 conjugated Phy-V antibody (Phylonix), which specifically labels activated endothelial cells, was used to stain zebrafish, and followed by examination by fluorescence microscopy.

[10] = test system: CoCl2 induced CNV; experiment: Eye specific angiogenesis ELISA (eZ-CNV ELISA) on isolated eyes; assay type: in vivo, zebrafish; conditions: co-treatment with 0.1 mg/ml CoCl2 for 4 days, 4 eyes/well
Description: Calculation of Drug Effects. To reduce the variability contributed by substrate and to compare results from different assays performed on different days, drug effects were normalized to % inhibition on EC proliferation. Chemiluminescent signal (CU) in each well (containing 4 eyes) was measured and used to calculate drug effect. […] In addition, to estimate non-specific background signal, 24 C were processed without antibody incubation; the mean value of which was subtracted from each CU measurement. Mean CU of D was used as 100% control. Drug effect was calculated following formula (a). %Inhibition=(1−(CU(drug treated)/CU(control)))×100% (a)
Based on the visual assessment above, co-treatment chosen as the treatment method to investigate the effects of the anti-angiogenic drugs Celebrex and Genistein in CoCl2 induced CNV in zebrafish using the eZ-CNV™ ELISA. Drug effects were calculated using the method described in Materials and Methods, infra. […] Based on the dose response curve, the optimal concentration for Celebrex was 20 μM and for Genistein was 0.0001 μM.
Methods for Dissociating Eyes from Whole Zebrafish. Zebrafish were processed for whole mount immunochemical staining with either Alexa 488 or HRP conjugated Phy-V following standard procedures. After extensive washing, stained zebrafish were incubated with 150 U/ml collagenase at 37° C. for 45 minutes; eyes were then dissociated from the whole zebrafish by gentle pipetting.
Eye Specific Angiogenesis ELISA (eZ-CNV™ ELISA). Isolated eyes of whole mount Phy-V-HRP stained zebrafish were placed in 96-well microplates, 4 eyes/well; 150 μl/well PS-atto (Lumigen, Southfield, Mich.), chemiluminescence HRP substrate, was added and the chemiluminescence signal from the enzymatic product was detected by Synergy HT microplate reader (BioTeK Instruments, Inc., Winooski, Vt.).

[11] = CoCl2 + 20 μM Celebrex-treated 5 dpf zebrafish

[Cl-].[Cl-].[Co+2] [CoCl2]
frequency or severity of CNV ([1]; zebrafish, in vivo): did not increase the frequency or severity of CNV
number of treated zebrafish exhibiting CNV specific phenotype ([1]; zebrafish, in vivo): 64
treated zebrafish exhibiting CNV specific phenotype ([1]; zebrafish, in vivo): 63.6±11.1%
vessel growth ([1]; zebrafish, in vivo): did not stimulate vessel growth
HIF-1α expression (RT-PCR) [2]: ↑ and ↓ and —
VEGF expression (RT-PCR) [3]: — and ↑
VEGF expression (RT-PCR), in words [3]: Up-regulation
IGF expression (RT-PCR) [4]: —
PEDF expression (RT-PCR) [5]: —
PGK expression (RT-PCR) [6]: —
retinal structure / vessels in the retina ([7]; zebrafish, in vivo): abnormal vessels formed in the retina; also recorded: abnormal retinal structure
lethality [8]: instantaneous death
zebrafish dying [8]: 100%

Cc1ccc(-c2cc(C(F)(F)F)nn2-c2ccc(S(N)(=O)=O)cc2)cc1 [Celebrex]
Mean ± SE (% CNV) ([9]; Celebrex 10 μM): 37.0 ± 16.1%
Mean ± SE (% CNV) ([9]; Celebrex 15 μM): 22.1 ± 12.4%
% CNV (per experiment) ([9]; Celebrex 20 μM): 0% and 10.0%
Mean ± SE (% CNV) ([9]; Celebrex 20 μM): 3.3 ± 3.3%
abnormal neovascularization in the choroidal vessel plexus [9]: prevented abnormal neovascularization
inhibition of CoCl2 induced CNV after post-treatment ([9]; post-treatment, drug added 24 hours after CoCl2): limited inhibition
CNV after pre-treatment ([9]; pre-treatment, high concentration of drug 4 hours, withdrawn before CoCl2 induction): low percentage of CNV zebrafish, however, the CNV defects were severe
effect on eye development [7, 11]: did not delay eye development
retinal structure [7, 11]: normal 5 layer structure with no vessels present in the retina
dose response in eZ-CNV ELISA [10]: typical dose response curve
optimal concentration based on the dose response curve [10]: 20 µM

O=c1c(-c2ccc(O)cc2)coc2cc(O)cc(O)c12 [Genistein]
Mean ± SE (% CNV) ([9]; Genistein 0.0001 μM): 20.8%
% CNV (per experiment) ([9]; Genistein 0.001 μM): 36.8% and 39.1%
CNV zebrafish (number per experiment) ([9]; Genistein 0.001 μM): 7 and 9
Mean ± SE (% CNV) ([9]; Genistein 0.001 μM): 38.0%
% CNV (per experiment) ([9]; Genistein 0.01 μM): 23.5%
CNV zebrafish (number per experiment) ([9]; Genistein 0.01 μM): 4
Mean ± SE (% CNV) ([9]; Genistein 0.01 μM): 23.5%
abnormal neovascularization in the choroidal vessel plexus [9]: prevented abnormal neovascularization
dose response in eZ-CNV ELISA [10]: only showed preventative effects at a low concentration
optimal concentration based on the dose response curve [10]: 0.0001 µM

CC(C)(S)[C@@H](N)C(=O)O [Penicillamine]
CNV ([1]; 0.01 μM Penicillamine from 24 hpf, at 5 dpf): CNV was observed
angiogenesis ([1]; 0.01 μM Penicillamine treatment at the 24 hpf stage): stimulated angiogenesis throughout the zebrafish
zebrafish developing CNV compared with CoCl2 treatment ([1]; Penicillamine treatment): Fewer zebrafish developed CNV
